This passage reports IC50 results from patent US20060009445A1, “Tumor-inhibiting anellated azepinone derivatives” (Faustus Forschungs CIE. Translational Cancer Research GmbH, priority 2002, published 2006).

Type in all cases: cell-based
In one test the test system is OVCAR 3. The experiment in a line: XTT assay, tumor-inhibiting effect in vitro, OVCAR 3. To be noted: Homo sapiens, incubation period 48 hours. On the procedure:
(§1) The tumor-inhibiting effect was tested in vitro in the XTT assay with an example of various cell lines. The incubation period was 48 hours (IC50 values in μM).

A further test has as its system SK-MEL-28. The experiment in a line: XTT assay, tumor-inhibiting effect in vitro, SK-MEL-28. As to conditions: Homo sapiens, incubation period 48 hours. On the procedure: as §1
For the next test, the system named is COLO 205. As to the kind of experiment: XTT assay, tumor-inhibiting effect in vitro, COLO 205. To be noted: Homo sapiens, incubation period 48 hours. On the procedure: as §1
A further test relates to NCI-H460. The experiment in a line: XTT assay, tumor-inhibiting effect in vitro, NCI-H460. As to conditions: Homo sapiens, incubation period 48 hours. On the procedure:
as §1

The test system of a further test is MOLT-4. As to the kind of experiment: XTT assay, tumor-inhibiting effect in vitro, MOLT-4. As to conditions: Homo sapiens, incubation period 48 hours. The protocol: as §1
In another test the test system is MCF-7. As to the kind of experiment: XTT assay, tumor-inhibiting effect in vitro, MCF-7. To be noted: Homo sapiens, MCF7, incubation period 48 hours. On the procedure:
as §1

A further test deals with HCT-15. As to the kind of experiment: XTT assay, tumor-inhibiting effect in vitro, HCT-15. To be noted: Homo sapiens, incubation period 48 hours. On the procedure: as §1
The test system of the next test is HT-29. As to the kind of experiment: XTT assay, tumor-inhibiting effect in vitro, HT-29. As to conditions: Homo sapiens, incubation period 48 hours. The protocol: as §1
A further test has as its system SW-620. As to the kind of experiment: XTT assay, tumor-inhibiting effect in vitro, SW-620. To be noted: Homo sapiens, incubation period 48 hours. On the procedure: as §1
For a further test, the system named is SK-MEL-5. The experiment in a line: XTT assay, tumor-inhibiting effect in vitro, SK-MEL-5. As to conditions: Homo sapiens, incubation period 48 hours. On the procedure: as §1
The subject of the next test is HCT-116. As to the kind of experiment: XTT assay, tumor-inhibiting effect in vitro, HCT-116. To be noted: Homo sapiens, incubation period 48 hours. The protocol: as §1
A further test has as its system NCI-H226. The experiment in a line: XTT assay, tumor-inhibiting effect in vitro, NCI-H226. To be noted: Homo sapiens, incubation period 48 hours. On the procedure:
as §1

For a further test, the system named is K-562. As to the kind of experiment: XTT assay, tumor-inhibiting effect in vitro, K-562. As to conditions: Homo sapiens, K562, incubation period 48 hours. On the procedure: as §1
The test system of the next test is CCRF-CEM. The experiment in a line: XTT assay, tumor-inhibiting effect in vitro, CCRF-CEM. As to conditions: Homo sapiens, incubation period 48 hours. The protocol: as §1

SMILES strings stand for the structures.

Take `Oc1ccccc1/C=N/N=C1\Cc2c([nH]c3ccc(Br)cc23)-c2ccccc2N1` [KP1437]: the half-inhibitory concentration (IC50) in the test on OVCAR 3 was found to be 6.82 µM; with SK-MEL-28 it was 7.98 µM; in the test on COLO 205, 5.25 µM; in the test on NCI-H460, 9.51 µM; in the test with MOLT-4, 2.9 µM; with MCF-7, 10.4 µM. Further, the half-inhibitory concentration (IC50) was 0.74 µM in the test with HCT-15; 6.61 µM in the test on HT-29; 3.83 µM with SW-620; 10 µM with SK-MEL-5; 2.56 µM in the test with HCT-116; 7.19 µM in the test with NCI-H226. For the same molecule, the half-maximal inhibitory concentration (IC50) in the test with K-562 was determined as 1.56 µM; in the test with CCRF-CEM it was 1.66 µM.

Turning to `NC(=S)N/N=C1\Cc2c([nH]c3ccc(Br)cc23)-c2ccccc2N1` [KP 1428], the IC50 in the test with OVCAR 3 was found to be 2.59 µM; in the test with SK-MEL-28, 18.5 µM; in the test on COLO 205 it was 13.3 µM; with NCI-H460, 14.4 µM; in the test on MOLT-4 it was 2.63 µM; in the test on MCF-7, 20.7 µM. The concentration for half-maximal inhibition (IC50) in the test with HCT-15 was 24.1 µM; with HT-29 it was 9.46 µM; with SW-620, 22.8 µM; with SK-MEL-5, 19.4 µM; with HCT-116, 26.4 µM; with NCI-H226 it was 30.1 µM. The IC50 with K-562 is 48.4 µM; in the test with CCRF-CEM, 5.47 µM.
